Here are results for 42 compounds from PubChem BioAssay AID844 (SRMLSC, 2007).

The nature of assay [1]: doxorubicin EC50 increase in MRP-1 cells, dose response, cell-based, doxorubicin EC50 shift (AID 844).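 As to viability: tested at 10 µM; plate controls were cells with vehicle for no effect and cells with cytotoxic drug for full effect.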 As to conditions: MRP1 cells, doxorubicin viability shift, 10 uM compound; at 100 µM (top of the series).
Assay [2] has as its system MRP1 cells, doxorubicin viability shift, 10 uM compound. The assay is described as above. The conditions noted are these: for EC50: measured here: doxorubicin EC50 with compound.

Molecules are shown by their SMILES. Activity calls are given as the source filed them. No rule for the calls is given here.

Regarding `COc1cc(C2Nc3cccc4cccc(c34)N2)cc(OC)c1O`, the viability in assay [1] was 1.31% (inactive). For the same compound, the 50% effective concentration (EC50) in assay [2] was under 0.195 µM.
The like results for `N=C(N)SCc1ccc(Cl)cc1Cl` were, in that order, 10.9% (inactive) and under 0.195 µM.
The like results for `NS(=O)(=O)c1ccc(N=Nc2c(-c3ccccc3)[nH]n(-c3nc(-c4ccccc4)cs3)c2=O)cc1` were, in that order, 8.13% (inactive) and under 0.195 µM.
The like results for `COc1cccc(/C=N/NC(=O)c2cc(-c3cccn3C)n[nH]2)c1O` were, in that order, 9.49% (inactive) and under 0.195 µM.
Take `CCOC(=O)c1c(CSC(=N)N)n(-c2ccc(C)cc2)c2cc(Br)c(OC(C)=O)cc12`: in assay [1], the viability was 0.37% (inactive). In assay [2], the EC50 was under 0.195 µM.
The like results for `Cc1cc(N/N=C/c2ccc(O)cc2O)nc(-n2nc(C)cc2C)n1` were, in that order, 15.5% (inactive) and under 0.195 µM.
For `Oc1ccc(-c2nc(-c3ccc(O)c(O)c3)cs2)cc1` the same measures were 1.94% (inactive) and under 0.195 µM.
Take `CCCCCCC(=O)Nc1ccc(C(=O)N/N=C/c2cccnc2)cc1`: in assay [2], the fold increase in Dox EC50 was 0.13 (inactive) and the EC50 was determined as 0.694 µM.
For `COc1cc(/C=N/NC(=O)C23CC4CC(CC(C4)C2)C3)cc(Br)c1O` the same measures were 0.66 (inactive) and 3.54 µM.
The like results for `CC(=O)N1CCN=C1SCc1ccc(Br)cc1` were, in that order, 0.97 (inactive) and 5.26 µM.
The like results for `COc1ccc(C2CC(c3ccc(Cl)cc3Cl)Nc3nc(N)nn32)cc1OC` (centres undefined) were, in that order, 1.05 (inactive) and 5.68 µM.
As for `Cn1c(=O)c2c(nc(CN3CCOCC3)n2CCc2ccccc2)n(C)c1=O`, in assay [2], the fold increase in Dox EC50 is 0.31 (inactive) and the EC50 was determined as 1.68 µM.
As to `O=C(COc1ccc(Cl)cc1)N1CCN(S(=O)(=O)c2ccccc2)CC1`, in assay [2], the fold increase in Dox EC50 was 0.68 (inactive) and the EC50 came to 3.68 µM.
The like results for `CSC1=NCCN1C(=O)Cc1ccc(Cl)cc1` were, in that order, 1.04 (inactive) and 5.6 µM.
The like results for `N/C(=N\N=C\c1ccc2c(c1)OCO2)c1nonc1N` were, in that order, 0.88 (inactive) and 4.73 µM.
For `Cc1nc2cc(-c3ccc(Cl)cc3)nn2c(C)c1CCC(=O)NC(C)c1ccc2c(c1)OCCO2` (centres undefined) the same measures were 0.52 (inactive) and 2.83 µM.
For the compound `CCOc1ccc(-c2nc(C#N)c(NCC(C)C)o2)cc1`, in assay [2], the fold increase in Dox EC50 is 1.19 (inactive) and the EC50 is 6.4 µM.
The like results for `CC(C)(C)C1CCc2c(sc(NC(=O)c3cccs3)c2C(=O)N2CCCCC2)C1` (centres undefined) were, in that order, 0.96 (inactive) and 5.2 µM.
As for `Cc1cc(=O)oc2c1ccc1oc(/C(=N/O)c3ccccc3)c(C)c12`, in assay [2], the fold increase in Dox EC50 is 1.3 (inactive) and the EC50 was determined as 7.02 µM.
For `CCc1nccn1C(=O)c1cnn2c(C(F)F)cc(-c3ccc(C)cc3)nc12` the same measures were 0.1 (inactive) and 0.523 µM.
The like results for `COc1ccc(NC(=O)CC2C(=O)N(c3ccc(F)cc3)C(=S)N2NC(=O)c2ccccc2)cc1` (centres undefined) were, in that order, 0.79 (inactive) and 4.29 µM.
The like results for `Cc1ccnc(NC(=O)COc2ccc3oc4c(c3c2)CCCC4)c1` were, in that order, 0.78 (inactive) and 4.21 µM.
As for `O=C1c2ccccc2-c2nc3ccccc3n21`, in assay [2], the fold increase in Dox EC50 is 1.09 (inactive) and the EC50 amounted to 5.87 µM.
For `O=C(Cc1ccccc1)Nc1ccccc1Oc1ccccc1` the same measures were 0.69 (inactive) and 3.71 µM.
The like results for `CCCn1c(C)cc(/C=C(\C#N)C(=O)OCC(=O)Nc2ccc(OC)c(Cl)c2)c1C` were, in that order, 0.7 (inactive) and 3.81 µM.
For `N#Cc1cc2c(nc1SCc1ccc(Cl)cc1)CCCC2` the same measures were 1.07 (inactive) and 5.75 µM.
In the case of `Cc1cccc(CC2S/C(=N/c3ccccn3)NC2=O)c1` (centres undefined), in assay [2], the fold increase in Dox EC50 is 1.15 (inactive) and the EC50 came to 6.22 µM.
For `Cc1ccc(NC(=O)CNC(=O)c2cccs2)cc1S(=O)(=O)Nc1ccc(Cl)cc1` the same measures were 1.11 (inactive) and 5.97 µM.
The like results for `CCNc1sc(C(=O)c2cccs2)c(N)c1-c1nc2ccccc2s1` were, in that order, 0.59 (inactive) and 3.17 µM.
The like results for `Brc1ccc(OCc2nnc3n2CCC3)cc1` were, in that order, 1.67 and 9.02 µM.
With `O=C(NCC(F)(F)F)Nc1nnc(C(F)(F)F)s1`, in assay [2], the fold increase in Dox EC50 is 1.54 and the EC50 was determined as 8.33 µM.
For `Cc1cc2nc(/N=C(\N)NC(=O)N3c4ccccc4Sc4ccccc43)nc(C)c2cc1C` the same measures were 1.69 and 9.15 µM.
For `Cc1cc(C)c(NC(=O)c2sc3nc4c(cc3c2N)C(=O)CC(C)(C)C4)c(C)c1` the same measures were 0.7 (inactive) and 3.76 µM.
Regarding `O=C1CSC(=NC(=O)c2ccccc2)N1`, in assay [2], the fold increase in Dox EC50 was 0.7 (inactive) and the EC50 turned out to be 3.79 µM.
Take `CC(C(=O)N1c2ccccc2CCc2ccccc21)n1nnc(-c2ccc(N(C)C)cc2)n1` (centres undefined): in assay [2], the fold increase in Dox EC50 is 1.06 (inactive) and the EC50 is 5.7 µM.
The like results for `Cc1ccc(NC(=O)Cc2csc(-c3ccccc3)n2)cc1F` were, in that order, 1.22 (inactive) and 6.6 µM.
The like results for `Cc1cccc(OCCNC(=O)c2ccc(Oc3ccc(C(F)(F)F)cc3[N+](=O)[O-])cc2)c1` were, in that order, 1.12 (inactive) and 6.05 µM.
The like results for `O=C(O)c1cccc(N2C(=O)C3CC=C(Cl)CC3C2=O)c1` (centres undefined) were, in that order, 1.48 (inactive) and 7.97 µM.
Regarding `O=c1[nH]c(C2CCCN(S(=O)(=O)c3ccccc3)C2)nc2c1nnn2Cc1ccccc1` (centres undefined), in assay [2], the fold increase in Dox EC50 was 0.11 (inactive) and the EC50 turned out to be 0.603 µM.
For `Cc1cccc(C2CC(c3ccccc3)Nc3ncnn32)c1` (centres undefined) the same measures were 0.46 (inactive) and 2.46 µM.
For `Cc1ccc2nc(NC(=O)CCNS(=O)(=O)c3cccs3)sc2c1` the same measures were 0.56 (inactive) and 3 µM.
In the case of `NC1C2CN(c3nc4c(cc3F)c(=O)c(C(=O)O)cn4-c3ccc(F)cc3F)CC12` (centres undefined), in assay [1], the viability is 17.6% (inactive). Moreover, in assay [2], the EC50 was under 0.195 µM.

Usually viability stands for the share of living cells, or the viability signal relative to a control. The EC50 is the midpoint of the concentration-response curve.
